Structures are written as SMILES. Values after ≈ are worked out from the molar mass of the structure shown.

Among the data in patent US10647675B2 (priority 2015, dated 2020) are MIC values, retold here.

The test system of experiment [1] is Trichophyton mentagrophytes SM-110. Put plainly: Antifungal activity evaluation test: minimum inhibitory concentration (MIC), broth dilution by reference to CLSI M38-A2. In kind it is cell-based. Conditions: SM110, read-out: MIC (T. menta.). A digest of the protocol: (§1)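 Broth microdilution after CLSI M38-A2: 2-fold DMSO dilution series in MOPS-buffered RPMI 1640 pH 7.0, inoculum 2×10^3 cells/mL final. Incubated 35° C for 4 days; MIC (μg/mL) is lowest concentration giving visually ≥80% growth inhibition versus growth control.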
A general note: Broth dilution looks for growth in wells or tubes with falling amounts of substance.

The test system of experiment [2] is Trichophyton rubrum KD-1130. The experiment is described as above. In kind it is cell-based. As to conditions: KD1130, read-out: MIC (T. rubrum). The method, boiled down: as §1

As usually defined, the MIC is the lowest concentration found to suppress growth. Regarding `Cc1nn2c(c1-c1cccnc1Oc1ccc(C(F)(F)F)cc1)OCC2` [I-232, 6-methyl-7-{2-[4-(trifluoromethyl)phenoxy]pyridin-3-yl}-2,3-dihydropyrazolo[1,5-b]oxazole], the MIC in experiment [1] and in experiment [2] was 0.2 to 0.78 µg/mL (≈ 0.554 to 2.16 µM) each time.

For the compound `COc1ccccc1-c1cccnc1Oc1cnc(C(F)(F)F)nc1` [I-178], the MIC in experiment [1] and in experiment [2] was at most 0.1 µg/mL in each case.

For `COCC(F)(F)c1ccc(Oc2ncccc2-c2cccc3ccnn23)cn1` [I-167, 7-(2-{[6-(1,1-difluoro-2-methoxyethyl)pyridin-3-yl]oxy}pyridin-3-yl)pyrazolo[1,5-a]pyridine], the MIC in experiment [1] and in experiment [2] was 0.2 to 0.78 µg/mL (≈ 0.523 to 2.04 µM) throughout.

Regarding `Cc1ccncc1-c1cccnc1Oc1ccc(C(C)(F)F)c(F)c1` [I-305, 2-[4-(1,1-difluoroethyl)-3-fluorophenoxy]-4′-methyl-3,3′-bipyridine], the MIC in experiment [1] and in experiment [2] was at most 0.1 µg/mL each time.

As to `CCCSc1ncc(Oc2ncccc2-c2ccc(F)cc2OC)cn1` [I-186, 2-(propylthio)-5-{[3-(4-fluoro-2-methoxyphenyl)pyridin-2-yl]oxy}-pyrimidine], the MIC in experiment [1] and in experiment [2] was at most 0.1 µg/mL in each case.

`CCc1ccc(Oc2ncccc2-c2cncc(Br)c2OC)cc1` [I-285, 5′-bromo-2-(4-ethylphenoxy)-4′-methoxy-3,3′-bipyridine]: the MIC in experiment [1] and in experiment [2] was at most 0.1 µg/mL in each case.

In the case of `Cc1cc(-c2cccnc2Oc2ccc(C(F)(F)F)nc2)n2nccc2n1` [I-48, 5-methyl-7-(2-{[6-(trifluoromethyl)pyridin-3-yl]oxy}pyridin-3-yl)-pyrazolo[1,5-a]pyrimidine], the values for the MIC in experiment [1] and in experiment [2] were 1.56 to 6.25 µg/mL (≈ 4.2 to 16.8 µM) and 0.2 to 0.78 µg/mL (≈ 0.539 to 2.1 µM), respectively.

Regarding `C#CCOc1ccccc1-c1cccnc1Oc1ccc(C(F)(F)F)nc1` [I-56, 3-[2-(2-propyn-1-yloxy)phenyl]-2-{[6-(trifluoromethyl)pyridin-3-yl]oxy}pryidine], the MIC in experiment [1] and in experiment [2] was 0.2 to 0.78 µg/mL (≈ 0.54 to 2.11 µM) in each case.

`COc1cc(F)ccc1-c1cccnc1Oc1ccc(C(F)(F)F)nc1` [I-12, 3-(4-fluoro-2-methoxyphenyl)-2-{[6-(trifluoromethyl)pyridin-3-yl]oxy}pyridine]: the MIC in experiment [1] and in experiment [2] was at most 0.1 µg/mL in each case.

`CC(F)(F)c1ccc(Oc2ncccc2-c2cncc(F)c2Cl)cn1` [I-97, 4′-chloro-2-{[6-(1,1-difluoroethyl)pyridin-3-yl]oxy}-5′-fluoro-3,3′-bipyridine]: the MIC in experiment [1] and in experiment [2] was 0.2 to 0.78 µg/mL (≈ 0.547 to 2.13 µM) in each case.

Take `Cc1ccncc1-c1cccnc1Oc1ccc(-n2cccn2)cc1` [I-433]: the MIC in experiment [1] and in experiment [2] was at most 0.1 µg/mL each time.

For the compound `COCC(F)(F)c1ccc(Oc2ncccc2-c2cccc3ccnn23)cc1` [I-413, 7-{2-[4-(1,1-difluoro-2-methoxyethyl)phenoxy]pyridin-3-yl}pyrazolo[1,5-a]pyridine], the MIC in experiment [1] and in experiment [2] was at most 0.1 µg/mL each time.

For `CCc1ccc(Oc2ncccc2-c2cnccc2Cl)cc1` [I-290, 4′-chloro-2-(4-ethylphenoxy)-3,3′-bipyridine], the MIC in experiment [1] and in experiment [2] was at most 0.1 µg/mL each time.

With `CCc1ccc(Oc2ncccc2-c2cccnc2OC)cc1` [I-280, 2-(4-ethylphenoxy)-2′-methoxy-3,3′-bipyridine], the MIC in experiment [1] and in experiment [2] was at most 0.1 µg/mL in each case.

For the compound `CCCc1ccc(Oc2ncccc2-c2cnccc2OC)cc1` [I-254, 4′-methoxy-2-(4-propylphenoxy)-3,3′-bipyridine], the MIC in experiment [1] and in experiment [2] was at most 0.1 µg/mL each time.

In the case of `COc1ccccc1-c1cccnc1Oc1ccc(C(F)(F)F)cc1` [I-201, 3-(2-methoxyphenyl)-2-[4-(trifluoromethyl)phenoxy]pyridine], the MIC in experiment [1] and in experiment [2] was at most 0.1 µg/mL each time.

Regarding `FC(F)(F)c1ccc(Oc2ncccc2-c2cccc3nccnc23)cc1` [I-224, 5-{2-[4-(trifluoromethyl)phenoxy]pyridin-3-yl}quinoxaline], the MIC in experiment [1] and in experiment [2] was at most 0.1 µg/mL throughout.

With `COC(=O)CCc1ccc(Oc2ncccc2-c2cnccc2OC)cc1` [I-279, methyl 3-(4-{[4′-methoxy-3,3′-bipyridin-2-yl]oxy}phenyl)propionate], the MIC in experiment [1] and in experiment [2] was 0.2 to 0.78 µg/mL (≈ 0.549 to 2.14 µM) throughout.

Take `COc1ncccc1-c1cccnc1Oc1ccc(C(F)(F)F)nc1` [I-26, 2-methoxy-2′-{[6-(trifluoromethyl)pyridin-3-yl]oxy}-3,3′-bipyridine]: the MIC in experiment [1] and in experiment [2] was at most 0.1 µg/mL in each case.

`CCC(C)c1ccc(Oc2ncccc2-c2cnccc2OC)cc1` (stereo not shown) [I-256, 2-[4-(sec-butyl)phenoxy]-4′-methoxy-3,3′-bipyridine]: the MIC in experiment [1] and in experiment [2] was at most 0.1 µg/mL in each case.

With `Cc1nn(C)c(C)c1-c1cccnc1Oc1ccc(C(F)(F)F)cc1` [I-341, 2-[4-(trifluoromethyl)phenoxy]-3-(1,3,5-trimethyl-1H-pyrazol-4-yl)pyridine], the MIC was 0.2 to 0.78 µg/mL (≈ 0.576 to 2.25 µM) in experiment [1] and at most 0.1 µg/mL in experiment [2].

Take `COCCN(C)c1ncc(Oc2ncccc2-c2cccc3c2OCC3)cn1` [I-450]: the MIC in experiment [1] and in experiment [2] was at most 0.1 µg/mL throughout.

Turning to `COc1ccncc1-c1cc(Cl)cnc1Oc1ccc(C(F)(F)F)cc1` [I-217, 5-chloro-4′-methoxy-2-[4-(trifluoromethyl)phenoxy]-3,3′-bipyridine], the minimum inhibitory concentration (MIC) in experiment [1] and in experiment [2] was 1.56 to 6.25 µg/mL (≈ 4.1 to 16.4 µM) each time.

In the case of `COc1c(Cl)cncc1-c1cccnc1Oc1ccc(C(C)(F)F)nc1` [I-100, 5′-chloro-2-{[6-(1,1-difluoroethyl)pyridin-3-yl]oxy}-4′-methoxy-3,3′-bipyridine], the MIC in experiment [1] and in experiment [2] was at most 0.1 µg/mL each time.

For the compound `Cc1ccncc1-c1cccnc1Oc1ccc(-c2ccccn2)cc1` [I-431], the MIC in experiment [1] and in experiment [2] was at most 0.1 µg/mL each time.

Consider `CCc1ccc(Oc2ncccc2-c2cnccc2CC)cc1` [I-291, 4′-ethyl-2-(4-ethylphenoxy)-3,3′-bipyridine], for which the MIC in experiment [1] and in experiment [2] was at most 0.1 µg/mL each time.

For the compound `COc1ncc(C)cc1-c1cccnc1Oc1ccc(C(F)(F)F)nc1` [I-30, 2-methoxy-5-methyl-2′-{[6-(trifluoromethyl)pyridin-3-yl]oxy}-3,3′-bipyridine], the MIC in experiment [1] and in experiment [2] was at most 0.1 µg/mL throughout.

Take `Cc1cc(Oc2ncncc2-c2cccc3c2OCC3)cnc1C(F)F` [I-324]: the MIC in experiment [1] and in experiment [2] was at most 0.1 µg/mL throughout.

Consider `CC(F)(F)c1ccc(Oc2ncccc2-c2cccc3nccnc23)cc1` [I-308, 5-{2-[4-(1,1-difluoroethyl)-phenoxy]-3-yl}quinoxaline], for which the MIC in experiment [1] and in experiment [2] was at most 0.1 µg/mL in each case.

As for `CCOC(=O)CN(C)c1ccc(Oc2ncccc2-c2ccccc2OC)cn1` [I-344, ethyl 2-[(5-{[3-(2-methoxyphenyl)pyridin-2-yl]oxy}pyridin-2-yl)(methyl)amino]acetate], the MIC in experiment [1] and in experiment [2] was at most 0.1 µg/mL in each case.

Regarding `COc1ncccc1-c1nccnc1Oc1ccc2c(c1)CCCC2` [I-316, 2-(2-methoxypyridin-3-yl)-3-[(5,6,7,8-tetrahydronaphthalen-2-yl)oxy]pyrazine], the MIC in experiment [1] and in experiment [2] was at most 0.1 µg/mL in each case.

For the compound `COc1ccncc1-c1cc(F)cnc1Oc1ccc(C(F)(F)F)cc1` [I-216, 5-fluoro-4′-methoxy-2-[4-(trifluoromethyl)phenoxy]-3,3′-bipyridine], the MIC in experiment [1] and in experiment [2] was at most 0.1 µg/mL throughout.

Consider `COc1cc(F)ccc1-c1cccnc1Oc1cnc(C(F)(F)F)c(C)c1` [I-118, 5-{[3-(4-fluoro-2-methoxyphenyl)pyridin-2-yl]oxy}-3-methyl-2-(trifluoromethyl)pyridine], for which the minimal inhibitory concentration (MIC) in experiment [1] and in experiment [2] was at most 0.1 µg/mL each time.

Regarding `CC(F)(F)c1ccc(Oc2ncccc2-c2cccnc2-n2cccn2)cn1` [I-107, 2-{[6-(1,1-difluoroethyl)pyridin-3-yl]oxy}-2′-(1H-pyrazol-1-yl)-3,3′-bipyridine], the MIC in experiment [1] and in experiment [2] was 1.56 to 6.25 µg/mL (≈ 4.11 to 16.5 µM) in each case.

Take `FC(F)(F)c1ccc(Oc2ncccc2-n2ccc3cccnc32)cn1` [I-50, 1-(2-{[6-(trifluoromethyl)pyridin-3-yl]oxy}pyridin-3-yl)-1H-pyrrolo[2,3-b]pryidine]: the MIC in experiment [1] and in experiment [2] was 0.2 to 0.78 µg/mL (≈ 0.561 to 2.19 µM) in each case.

On to `COc1ccncc1-c1cccnc1Oc1ccc(C(F)(F)F)cc1` [I-210, 4′-methoxy-2-[4-(trifluoromethyl)phenoxy]-3,3′-bipyridine], for which the MIC in experiment [1] and in experiment [2] was at most 0.1 µg/mL each time.

`CCc1ccc(Oc2ncccc2-c2cncc(C(F)F)c2OC)cc1` [I-288, 5′-(difluoromethyl)-2-(4-ethylphenoxy)-4′-methoxy-3,3′-bipyridine]: the MIC in experiment [1] and in experiment [2] was at most 0.1 µg/mL throughout.

Consider `COc1ccccc1-c1cccnc1Oc1ccc(C(F)(F)CN(C)C(C)=O)nc1` [I-151, N-[2,2-difluoro-2-(5-{[3-(2-methoxyphenyl)pyridin-2-yl]oxy}-2-yl)-ethyl]-N-methylacetamide], for which the MIC in experiment [1] and in experiment [2] was 0.2 to 0.78 µg/mL (≈ 0.484 to 1.89 µM) throughout.

Turning to `COc1ncccc1-c1cccnc1Oc1ccc(CCc2cc(C)no2)cc1` [I-408, 5-(4-{[2′-methoxy-(3,3′-bipyridin)-2-yl]oxy}phenethyl)-3-methylisoxazole], the MIC in experiment [1] and in experiment [2] was at most 0.1 µg/mL in each case.

As for `Cc1cc(-c2ccc(Oc3ncccc3-c3cnccc3C)cc2)on1` [I-425], the minimum inhibitory concentration (MIC) in experiment [1] and in experiment [2] was at most 0.1 µg/mL each time.

As for `Cc1ccncc1-c1cccnc1Oc1ccc(C(C)(F)F)nc1` [I-91, 2-{[6-(1,1-difluoroethyl)pyridin-3-yl]oxy}-4′-methyl-3,3′-bipyridine], the MIC in experiment [1] and in experiment [2] was 0.2 to 0.78 µg/mL (≈ 0.611 to 2.38 µM) each time.
